Experimental data from patent US20200216492A1, “USE OF C-TERMINALLY EXTENDED PEPTIDES TO DISRUPT INHIBITOR NK CELL RECEPTOR INTERACTIONS WITH MHC I” (La Jolla Institute for Allergy and Immunology, priority 2016, published 2020).
“Also recorded” adds a separate entry of the source.

What was measured:
KIR2DL1-Fc = KIR2DL1-Fc binding to immobilized HLA-peptide complexes by BLI (Octet RED96); conditions: 2 μM KIR2DL1-Fc, biotinylated complex on SA sensor tip
Source text: Binding to buffer only was used for background subtraction.
Synthetic DNA constructs of KIR3DL1 (HLA-B*57:01) and KIR2DL1 (HLA-C*04:01) are cloned and expressed as Fc-fusion constructs in SF9 insect cells. HLA-B*57:01 and […] are refolded with both core and extending peptides and captured on a Strepavidin sensor chip for SPR analysis or a SA sensor tip for BLI analysis as for HLA-A*02:01. […] KIRDL-Fc fusion proteins are, therefore, used to measure the binding affinity, since their bivalency will increase overall binding affinity. […] Further, KIRDL-Fc fusion proteins are immobilized using an anti-human Fc antibody capture chip (GE Healthcare) and the binding of HLA-tetramers to the immobilized KIRDL receptors measured. This increases affinity even further (tetra-valency versus bivalency). […] The C-terminally extended peptides all disrupt KIR2DL1 binding, regardless of whether they induce the “lysine lift” or the “tyrosine swing” (FIG. 19). […] This is proof of concept that structural alterations around the F pocket of HLA alleles that form the primary binding site for KIRL abrogate receptor binding.

HLA-A*02:01 = biological target: T1, HLA-A*02:01 (Homo sapiens, UniProt P04439, D140Y/D185E/D98H/E176V/E277Q/G131W/G231S/I119V/I121R/I166T/I218V/L300P/L318F/N151K/N90K/P208A/P217A/Q86G/Q94H/R138H/R169H/T345S); test: Thermal denaturation assay (differential scanning fluorimetry) of HLA-A*02:01-β2m-peptide complexes; assay type: binding; conditions: for relative stability of HLA-peptide complex: thermal denaturation
T1 construct: HLA-A*02:01 class I heavy chain ectodomain (residues 21-274); made in house
Procedure: HLA-A*02:01-β2m-peptide complexes with the various different peptides were analyzed for thermal denaturation by differential scanning fluorimetry using a LightCycler 480 (Roche). HLA-A*02:01-β2m-peptide complexes with different peptides at 100 μM in reaction buffer (20 mM Tris-HCl pH 7.5, 150 mM NaCl) were used as stock solutions. Each reaction mixture constituted of 1-2 μl protein complex stock solution, 2l of SYPRO Orange dye (100×, Invitrogen) made up to 20 μl in reaction buffer in a 96-well white plate compatible with the instrument. A temperature gradient from 20° C.-85° C. at steps of 0.06° C./sec and 10 acquisitions/° C. was used for the experiment. Each experiment with individual protein-peptide complex was repeated thrice. A melt curve of the total fluorescence of the run was plotted against temperature. The minima of the first derivative of the melt curve from raw fluorescence data (temperature differential of absolute fluorescence versus temperature) provided the meting temperature (Tm) for individual HLA-A*02:01-β2m peptide complexes (inflection point of the melt curve).
To determine the relative stability of the individual HLA-A*02:01-peptide complexes the inventors followed their thermal denaturation by differential scanning fluorimetry. The melting temperatures (Tm) obtained from the melt curves allowed the inventors to compare the stability of the different complexes (FIG. 3).

[1] = test system: KIR3DL1 expressing YTS cells; test: HLA-B*57:01/peptide tetramer staining of KIR3DL1 transfected YTS cells (flow cytometry); assay type: cell-based; conditions: KIR3DL1 positive and negative YTS cells; 10, 50 and 100 μg/ml tetramer; 30 min on ice; preliminary study
Procedure: KIR3DL1 negative (top) and positive (bottom) YTS cells were analyzed for their staining using the indicated HLA-B/peptide tetramer. Binding of the tetramer to KIR3DL1 negative cells likely indicates binding of the tetramer to another receptor, such as 2B4 and, therefore, different KIR transfected cells, such as K562 cells will be used next.
In parallel, whether the HLA-tetramers can stain K562 cells that have been transfected with the corresponding allele-matched KIRDL receptor is tested. Without being limited to any particular theory, it is expected that HLA tetramers presenting the core peptide will stain K562 cells, while staining with tetramers presenting the C-terminally extended peptides is greatly impaired and will overlap with the isotype control. Appropriate anti KIR antibodies are used as positive control (Anti-KIR3DL1 clone DX9 and anti-KIR2DL1 clone HP-MA4 from Biolegend). […]

[2] = test system: HLA-B*58:02 transfected 721.221 cells; test: Cytotoxicity assay using KIR3DL1 transfected YTS cells and peptide-pulsed 721.221 target cells; assay type: cell-based; conditions: peptide 100 μM; KIR3DL1 YTS effectors; E:T 10:1; 2-4 hrs; preliminary study
Procedure: The ability of KIR3DL1 or KIR2DL1 transfected YTS cells to kill HLA expressing 721.221 target cells is tested. Since YTS cells are devoid of any inhibitory KIR, expression of a single KIR will tolerize YTS cells against the 721.221 target cell expressing the allele-matched HLA-B*58:02 (instead of HLA-B*57:01 used for SPR and crystallography) or HLA-C*04:01. HLA-B*58:02 is identical in sequence in the binding region for KIR3DL1 and reported to bind KIR3DL1 allele. 721.221/HLA-C*04:01 cells expressing a TAP inhibitor as well as the corresponding KIR2DL1 YTS transfectants have been obtained. In these 721.221 cells, peptides have to be loaded on the empty HLA-C on the cell surface. The advantage of this system is that the degree of inhibition can be titrated using different concentration of peptides. Target cell killing is assessed using a europium-based fluorescence killing assay as described (67). In this setup, the antibody IPH2101 serves as a positive control for killing, and the efficacy of extending peptides to induce killing is compared. IPH2101 is expressed, for which the sequence is available (Patent application: PCT/US2013/063068), similar to Fc fusion proteins in insect cells. […]
Cytotoxicity assay using KIR transfected YTS cells (FIG. 21) has been established. […] Finally, fluorescence was measured in a Perkin Elmer EnVision™ time-resolved fluorometer. […]

HLA-C*03:07 = HLA-C*03:07 (Homo sapiens, UniProt P10321, A176E/A330V/A97T/C25G/C350S/D114A/D33Y/E197K/L119I/L127V/L171W/L218V/M285V/M309V/M331V/N104K/P208H/Q277E/Q291P/R243W/R45H/S101N/S123Y/S140Y/S297R/S48A/T118I/T187L/T329A/T363A/V319A); test: Refolding of HLA-C*03:07 with peptides (SEC, SDS-PAGE, MALDI-TOF); assay type: binding; conditions: gel filtration
Source text: Note that A280 scale is different between the three panels.
Core peptides were chosen that have been crystallized in complex with HLA-B as well as HLA-C and designed variants containing C-terminal extensions (Table 3). […] HLA-C can be optimized while producing more HLA-B complexes for crystallization and structure determination using established methods. Crystallization is not major problem, since only HLA I-peptide complexes are crystallized and not ternary complexes containing a receptor. For HLA-A2*02:01, all 9 complexes were successfully crystallized thereby establishing a routine procedure. Structure determination is performed using molecular replacement (MR), using available reference structures.

HLA-A*02:01 mutants = test: Refolding of HLA-A*02:01 position 80 mutants with extending peptides (SEC); assay type: binding; conditions: increase in incorrectly folded heavy chain as indicator, preliminary data
Procedure: Refolding efficiency is judged by comparing peak high (at 45 kDa) with that of the preceding oligomeric peak.
It is possible that replacing T80 with amino acids Ile, Lys, and Asn as found in other common alleles may affect refolding. […] Whether a flexible F pocket in HLA-C*03:07 can be created was tested by exchange against the amino acids from HLA-A*02:01, either Thr80 or the combination of Thr80 and Thr142 together. Other amino acids at position 80 or mutate other alleles at position 80 and 142 were introduced as necessary.

KIR2DL1-Fc, sequence (P43626 22-245 limits assumed): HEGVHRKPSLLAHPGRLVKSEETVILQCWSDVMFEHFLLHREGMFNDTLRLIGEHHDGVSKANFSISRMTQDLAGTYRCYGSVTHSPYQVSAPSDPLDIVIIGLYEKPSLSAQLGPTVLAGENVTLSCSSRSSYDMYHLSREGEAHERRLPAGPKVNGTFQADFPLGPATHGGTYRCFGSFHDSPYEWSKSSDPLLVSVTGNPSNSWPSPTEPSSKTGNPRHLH

## YFDPANGKFDN [Y11N]
KIR2DL1-Fc
  KIR2DL1-Fc binding to HLA-C*04:01-peptide complex: abrogated

## YLSPIASPLLDGKSLR [T. gondii C-terminally extending peptide]
HLA-A*02:01; extended versus equivalent nested peptide
  difference in Tm between complex with extended peptide and with nested peptide: about 7 °C

## YFDPANGKF [Y9F, reference compound]
KIR2DL1-Fc
  KIR2DL1-Fc binding to HLA-C*04:01-peptide complex: strong binding signal

## YFDPANGKFK [Y10K]
KIR2DL1-Fc
  KIR2DL1-Fc binding to HLA-C*04:01-peptide complex: abrogated

## LSSPVTKSFDGK [L12K]
[1]
  binding of Alexa Fluor-647 HLA-B*57:01/peptide tetramer to YTS cells: bound to YTS cells, regardless whether KIR3DL1 was expressed or not
[2]
  induction of YTS NK cell killing of target cells: induce YTS NK cell killing; also recorded: appears to induce killing

## LSSPVTKSFK [L10K]
[2]
  induction of YTS NK cell killing of target cells: does not induce any killing

## GLLPELPAVGGNE
HLA-A*02:01
  relative stability of HLA-peptide complex: as stable as

## GAVDPLLAL [G9L, reference compound]
HLA-C*03:07
  refolding of HLA-C*03:07 with peptide: protein complex of proper size was observed

## LSSPVTKSF [L9F, core self-peptide for HLA-B*57:01, reference compound]
KIR2DL1-Fc
  KIR2DL1-Fc binding to allele-mismatched HLA-B*57:01-peptide complex: does not bind
[1]
  binding of Alexa Fluor-647 HLA-B*57:01/peptide tetramer to YTS cells: bound to YTS cells, regardless whether KIR3DL1 was expressed or not

## GLKEGIPALDN [G11N, T. gondii C-terminally extending peptide]
HLA-A*02:01 mutants
  refolding efficiency of HLA-A*02:01 position 80 mutants with peptide (order of residues): Ile80 (HLA-B)>Thr80 (HLA-A)>Lys80 (HLA-C*04:01)>Asn80 (HLA-C*03:07)

## GAVDPLLALD [G10D]
HLA-C*03:07
  refolding of HLA-C*03:07 with peptide: protein complex of proper size was observed

## GLKEGIPAL
HLA-A*02:01; differential scanning fluorimetry, SYPRO Orange, 20-85 °C
  melting temperature (Tm) of HLA-A*02:01-peptide complex: 63 °C
HLA-A*02:01
  relative stability of HLA-peptide complex: less stable complex as compared to peptide GLLPELPAV; also recorded: as stable as those with longer peptides
